According to patent US5312816A, “Method of combatting osteoporosis in mammalian subjects, utilizing organic boron compounds” (priority 1993, dated 1994):

How the values were obtained:
Aryl sulphatase [1] = test: Mouse hepatic lysosomal aryl sulphatase activity; format: biochemical; conditions: Table XV, 60 min incubation
From the text: (§1) 1. Cf1 male mouse hepatic 10% homogenates in 0.25M sucrose+0.001MEDTA,pH 7.2.
(§2) Lysosomal Enzymes - free and total [triton X-100].
(§3) 3. Aryl sulphatase- p-nitrocatechol sulfate, pH
(§4) 5. 8 p-nitro-catechol product 510 nm.

Cathepsin D [2] = target: T1, Cathepsin D (Mus musculus, UniProt P18242); test: Mouse macrophage cathepsin D activity; format: cell-based; conditions: Table XVII; mouse macrophage, 60 min incubation; read-out: Cathepsin D pH 5.0 IC50
T1 construct: azocasein assay pH 5.0
T1 sequence (P18242 65-410): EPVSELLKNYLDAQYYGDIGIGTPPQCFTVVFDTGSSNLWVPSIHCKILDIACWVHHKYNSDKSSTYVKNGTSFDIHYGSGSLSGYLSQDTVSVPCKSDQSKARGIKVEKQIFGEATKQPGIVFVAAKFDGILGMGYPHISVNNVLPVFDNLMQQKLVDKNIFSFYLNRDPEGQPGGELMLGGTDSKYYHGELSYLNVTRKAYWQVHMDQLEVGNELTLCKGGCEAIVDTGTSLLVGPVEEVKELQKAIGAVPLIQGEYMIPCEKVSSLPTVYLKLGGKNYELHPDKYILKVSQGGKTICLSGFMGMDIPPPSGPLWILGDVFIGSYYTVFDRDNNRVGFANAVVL
From the text: (§5) 3. Mouse macrophages J774A.1 BALB/c
(§6) 2. Acid Cathepsin D -azocasein-pH 5.0, hydrolytic azo-peptide produce 366 nm.

Cathepsin D [3] = target: T1, Cathepsin D; test: Mouse hepatic lysosomal cathepsin D activity; format: biochemical
From the text: as §1, §2, §6
Cathepsin azo casein activity -

Cf1 male mice [4] = test: Anti-inflammatory screen, Winter's test, 2% carrageenan hind foot; format: in vivo; conditions: Table XIV; unit inferred; unit assumed
Description: Anti-inflammatory Screen- Cf1 - male mice-Winter's Test 2% carrageenan S.C. plantar surface of hind foot, drugs administered @8 or 10 mg/kg I.P. 2X
Winter, C.A., et al, Proc. Soc.

[5] = target: Prostaglandin cyclooxygenase; test: Mouse macrophage prostaglandin cyclooxygenase activity; format: cell-based; conditions: 60 min incubation, read-out: Prostaglandin Cyclooxygenase IC50
From the text: as §5
Prostaglandin synthetase purified beef seminal vesicle ^3 H arachidonic acid (86.2 Ci/mmol), tlc separation.

Acid phosphatase [6] = test: Mouse hepatic lysosomal acid phosphatase activity; format: biochemical; conditions: Table XV; mouse hepatic, 60 min incubation
From the text: as §1, §2
(§7) 1. Acid phosphatase -beta glycerol-3-phosphate, pH 5.0, released IP 720 nm.
Acid phosphatase activity -

Cf1 male mice [7] = test: Writhing reflex, 0.6% acetic acid; format: in vivo; conditions: Table XIV; unit inferred; unit assumed
Description: Writhing reflex- Cf1 -male mice- 0.6% acetic acid I.P. drugs administered @20 mg/kg/ I.P. 20 min. later - the # of stretches/10 min.
Hendershot, L.C., et al, J.

Trypsin [8] = test: Mouse hepatic trypsin activity; format: biochemical; conditions: Table XVI; 60 min incubation; read-out: Mouse Hepatic Trypsin IC50
From the text: as §1
(§8) 1. Trypsin- N-benzoyl-L-arginine ethyl ester pH 8.0, hydrolytic product 253 nm.

Sprague Dawley male rats [9] = test: Anti-pleurisy screen, Evans blue + carrageenan; format: in vivo; conditions: Table XIV; unit not given
Pg. cyclooxygenase = target: T2, Pg. cyclooxygenase (Sus scrofa, UniProt A0A287ANF9); test: Porcine seminal vesicles Pg. cyclooxygenase; format: biochemical; conditions: Table XVI; 60 min incubation
T2 construct: Porcine Seminal; from tissue; the methods section prints beef seminal vesicle
T2 sequence (A0A287ANF9 25-600): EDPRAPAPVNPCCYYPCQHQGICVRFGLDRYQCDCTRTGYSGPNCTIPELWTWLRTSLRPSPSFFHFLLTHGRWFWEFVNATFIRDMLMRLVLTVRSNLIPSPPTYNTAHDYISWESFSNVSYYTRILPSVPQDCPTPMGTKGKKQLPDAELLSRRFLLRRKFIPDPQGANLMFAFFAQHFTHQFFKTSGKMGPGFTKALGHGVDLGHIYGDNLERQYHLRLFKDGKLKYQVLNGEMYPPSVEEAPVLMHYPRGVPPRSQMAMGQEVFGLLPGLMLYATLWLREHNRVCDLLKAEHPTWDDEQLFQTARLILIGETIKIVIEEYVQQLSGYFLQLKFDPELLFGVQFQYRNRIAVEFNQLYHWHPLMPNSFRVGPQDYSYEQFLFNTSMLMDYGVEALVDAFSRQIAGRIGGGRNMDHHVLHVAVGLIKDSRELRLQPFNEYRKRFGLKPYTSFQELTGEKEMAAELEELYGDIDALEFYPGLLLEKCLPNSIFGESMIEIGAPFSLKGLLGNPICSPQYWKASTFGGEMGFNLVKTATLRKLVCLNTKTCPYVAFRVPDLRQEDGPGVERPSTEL

Aryl sulphatase [10] = test: Mouse macrophage aryl sulphatase activity; format: cell-based; conditions: 60 min incubation, read-out: Aryl Sulphatase IC50
Cf1 male mice [11] = test: Hot plate tail flick test; format: in vivo; conditions: Table XIV; unit not given
Elastase [12] = test: Mouse macrophage elastase activity; format: cell-based; conditions: 60 min incubation, read-out: Elastase IC50
Trypsin [13] = test: Mouse macrophage trypsin (BAEE) activity; format: cell-based; conditions: 60 min incubation, read-out: Trypsin BAEE IC50
Acid phosphatase [14] = test: Mouse macrophage acid phosphatase activity; format: cell-based; conditions: 60 min incubation, read-out: Acid Phosphatase IC50
Commercial Collagenase = test: Commercial collagenase (type not stated); format: biochemical; conditions: Table XVI; 60 min incubation
From the text: 3. Collagenase I, Clostridium histolyticum, bone, skin, tendon, blood vessel, dentine, GI. substrate: rat collagen, N-[propionate-2-3-^3 H] propionylated measured as dpm released.
4. Collagenase II, Clostridium histolyticum, cartilage collagen.

Cf1 male mice [15] = test: Writhing reflex, 0.6% acetic acid; format: in vivo; conditions: Mus musculus, ip; Table IV
Sprague Dawley Rats = test: Anti-inflammatory activity in Sprague Dawley rats; format: in vivo; conditions: Table IV; 8 mg/kg I.P.
Sprague Dawley male rats [16] = test: Chronic adjuvant arthritis screen, Mycobacterium butyricum; format: in vivo; conditions: Table XIV; unit not given
[17] = tested on: Prostaglandin cyclooxygenase; test: Human osteoporosis fibroblasts prostaglandin cyclooxygenase activity; format: cell-based; conditions: Table XI, 60 min incubation, read-out: Prostaglandin Cyclooxygense IC50
Trypsin [18] = test: Human osteoporosis fibroblasts trypsin (BAEE) activity; format: cell-based; conditions: Table XI; human osteoporosis fibroblasts, 60 min incubation; read-out: Trypsin BAEE IC50
From the text: as §8

Cathepsin D [19] = target: T3, Cathepsin D (Homo sapiens, UniProt P07339); test: Human osteoporosis fibroblasts cathepsin D (azo-casein) activity; format: cell-based; conditions: Table X; human osteoporosis fibroblasts, DMEM +10% FCS + P/S; read-out: Cathepsin D IC50
T3 construct: azocasein assay pH 5.0
T3 sequence (P07339 65-412): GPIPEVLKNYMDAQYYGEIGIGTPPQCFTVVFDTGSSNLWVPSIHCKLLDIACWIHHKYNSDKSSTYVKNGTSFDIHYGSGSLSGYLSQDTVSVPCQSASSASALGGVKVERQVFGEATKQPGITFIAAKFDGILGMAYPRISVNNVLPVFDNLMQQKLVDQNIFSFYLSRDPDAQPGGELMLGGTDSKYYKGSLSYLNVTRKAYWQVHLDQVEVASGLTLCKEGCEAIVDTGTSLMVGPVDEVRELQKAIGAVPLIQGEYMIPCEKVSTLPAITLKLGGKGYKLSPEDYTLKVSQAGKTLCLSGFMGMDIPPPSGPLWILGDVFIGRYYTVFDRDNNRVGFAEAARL
From the text: Osteoporosis Human Fibroblast-CRL-1140, Be SA1

Acid phosphatase [20] = test: Human osteoporosis fibroblasts acid phosphatase activity; format: cell-based; conditions: Table X; human osteoporosis fibroblasts; read-out: Acid Phosphatase IC50
From the text: as §7

Aryl sulphatase [21] = test: Human osteoporosis fibroblasts aryl sulphatase activity; format: cell-based; conditions: Table X; human osteoporosis fibroblasts; read-out: Aryl Sulphatase IC50
From the text: as §3, §4

Elastase [22] = test: Human osteoporosis fibroblasts elastase activity; format: cell-based; conditions: Table XI; human osteoporosis fibroblasts, 60 min incubation; read-out: Elastase IC50
From the text: 2. Elastase- N-succinyl-L-alanyl-L-alanine-p-nitroanilide, pH 8.0, p-nitro anilide 410 nm.

Cathepsin [23] = target: T4, Cathepsin (Rattus norvegicus, UniProt P24268); test: Rat PMNs cathepsin activity; format: cell-based; conditions: pH 5; 5 × 10^-6 M, N=6; read-out: Rat PMNs Cathep.
T4 construct: azocasein assay pH 5.0
T4 sequence (P24268 65-407): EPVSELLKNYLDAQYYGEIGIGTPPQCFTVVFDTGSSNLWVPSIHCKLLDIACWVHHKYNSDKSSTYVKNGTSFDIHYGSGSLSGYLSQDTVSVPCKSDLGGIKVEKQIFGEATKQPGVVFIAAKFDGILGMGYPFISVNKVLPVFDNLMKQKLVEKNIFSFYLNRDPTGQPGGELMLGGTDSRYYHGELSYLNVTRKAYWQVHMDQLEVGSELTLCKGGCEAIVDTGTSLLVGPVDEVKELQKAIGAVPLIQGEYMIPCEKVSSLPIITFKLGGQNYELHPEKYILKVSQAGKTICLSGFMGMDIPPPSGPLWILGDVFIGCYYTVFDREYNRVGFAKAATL
From the text: 2. PMNs-polymorphonuclear neutrophils-rat peritoneal cavity 0.5% oyster glycogen.
as §6

in vivo = conditions: mouse, Table 1, N=6
Description: Amine borane compounds (0 to 100 mg/kg) were administered to CF1 male mice as a single injection with six mice for each dosage. Mice were weighed daily and the number of deaths was recorded each day for a 14 day period. The LD50 value was determined by the procedure of S.C. Gad and C.S. Weil, "Statistics for Toxicologists" in Principles and Methods of Toxicology, A.W. Hayes, Ed., 2nd Edition, P 435-483 Raven Press, New York 1982.

5'-Lipoxygenase = target: T5, 5'-Lipoxygenase (Homo sapiens, UniProt P09917); test: Human leukocyte 5'-lipoxygenase; format: cell-based
T5 construct: human leukocyte tissue culture cells; endogenous in cells; host or cells: Human peripheral leukocytes, RPMI-1788
T5 sequence (P09917 1-674): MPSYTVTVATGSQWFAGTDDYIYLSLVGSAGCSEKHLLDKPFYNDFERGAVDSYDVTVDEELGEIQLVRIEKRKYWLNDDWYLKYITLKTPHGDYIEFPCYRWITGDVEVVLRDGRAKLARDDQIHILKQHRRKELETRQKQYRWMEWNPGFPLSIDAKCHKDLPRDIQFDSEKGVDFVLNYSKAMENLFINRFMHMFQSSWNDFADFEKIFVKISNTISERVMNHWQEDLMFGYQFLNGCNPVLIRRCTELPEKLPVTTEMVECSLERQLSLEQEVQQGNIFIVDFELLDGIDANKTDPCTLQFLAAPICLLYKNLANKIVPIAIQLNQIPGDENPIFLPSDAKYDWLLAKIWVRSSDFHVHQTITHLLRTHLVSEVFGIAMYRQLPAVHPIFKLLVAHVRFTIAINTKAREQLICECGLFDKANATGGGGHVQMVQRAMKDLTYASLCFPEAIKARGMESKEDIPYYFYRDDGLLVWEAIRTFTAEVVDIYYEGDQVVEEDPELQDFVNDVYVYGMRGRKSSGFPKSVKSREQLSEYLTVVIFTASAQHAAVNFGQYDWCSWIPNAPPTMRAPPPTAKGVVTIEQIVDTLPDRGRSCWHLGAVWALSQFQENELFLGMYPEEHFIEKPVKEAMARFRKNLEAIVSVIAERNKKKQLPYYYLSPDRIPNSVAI

Cathepsin [24] = test: Human leukocyte cathepsin; format: cell-based; conditions: Table XIX; read-out: Human Leukocyte IC50 (head gives no enzyme; beside Cathepsin D)
From the text: 5. Human peripheral leukocytes, RPMI-1788
as §6

[25] = Table XV, mouse hepatic, 60 min incubation, read-out: Cathepsin D IC50
[26] = Table VII, mouse macrophage cultured cells
[27] = read-out: Mouse Hepatic Cathepsin D IC50, Table XIX

SMILES	IC50 (Aryl sulphatase [1])	IC50 (Cathepsin D [2])	IC50 (Cathepsin D [3]; [25])	Anti-Inflammation Cf1 Mice (Cf1 male mice [4])	IC50 ([5]; Table XVIII, mouse macrophage)	IC50 (Acid phosphatase [6])	Writhing Reflex Mice (Cf1 male mice [7])	IC50 (Trypsin [8])	Anti-Pleurisy Rats (Sprague Dawley male rats [9])	IC50 (Pg. cyclooxygenase)	IC50 (Aryl sulphatase [10]; Table XVII, mouse macrophage)	Tail Flick Mice (Cf1 male mice [11])	IC50 (Elastase [12]; Table XVIII, mouse macrophage)	IC50 (Trypsin [13]; Table XVIII, mouse macrophage)	IC50 (Acid phosphatase [14]; Table XVII, mouse macrophage)	IC50 (Commercial Collagenase)	Anti-Arthritis Rats (Sprague Dawley male rats [16])	further results
CC(C)=O.C[N+](C)(C)[BH2-]C(=O)[O-].O=[N+]([O-])[O-].[Ca+2] [Compound 28]	3.05 µM	2.38 µM	4.58 µM	65%	1.92 µM	7.66 µM	66.4%	9.99 µM	50.1	2.57 µM	2.38 µM	169	5.93 µM	2.38 µM	3.08 µM	495 µM		
BC(=O)O [Compound 13]	4.34 µM	4.57 µM	6.19 µM	41.7%	15.6 µM	4 µM					5.43 µM		3.07 µM	2.25 µM	0.82 µM		55.2	response vs control in vivo at 20 mg/kg (Cf1 male mice [15]): 17.4%; IC50 ([5]; Table VIII, mouse macrophages): 6.79 µM; Anti-Inflammatory Activity Sprague Dawley Rats (Sprague Dawley Rats): 55 % Control; IC50 [17]: 5.51 µM; IC50 (Trypsin [18]): 7.51 µM; IC50 (Cathepsin D [19]): 1.19 µM; IC50 (Aryl sulphatase [10]; [26]): 5.43 µM; IC50 (Elastase [12]; Table VIII, mouse macrophages): 3.07 µM; IC50 (Trypsin [13]; Table VIII, mouse macrophages): 2.25 µM; IC50 (Acid phosphatase [20]): 6.5 µM; IC50 (Acid phosphatase [14]; [26]): 0.82 µM; IC50 (Aryl sulphatase [21]): 8.19 µM; IC50 (Elastase [22]): 3.01 µM
[BH3-][NH+]1CCOCC1 [Compound 1]																		activity at 5 µM (Cathepsin [23]): 93%; activity at 5 µM (Cathepsin D [3]; pH 5, read-out: Mouse Liver Cathep.): 107%; LD50 at 336 h (in vivo): 475 mg/kg
C[N+](C)(C)[BH2-]C(=O)[O-].C[N+](C)(C)[BH2-]C(=O)[O-].NCCN.NCCN.[Cl-].[Co+3] [Compound 27]	5.89 µM	3.83 µM	7.8 µM	49.6%	2.09 µM	4.25 µM	66.2%	9.88 µM	96.3	4.01 µM	1.95 µM	150	9.77 µM	1.38 µM	2.92 µM	522 µM	70.0	
CCOC(=O)[BH2-][N+](C)(C)C [Compound 6]																		activity at 5 µM (Cathepsin [23]): 16%; LD50 at 336 h (in vivo): 140 mg/kg
CC#N.CO.C[N+](C)(C)[BH2-]C(=O)[O-].C[N+](C)(C)[BH2-]C(=O)[O-].C[N+](C)(C)[BH2-]C(=O)[O-].C[N+](C)(C)[BH2-]C(=O)[O-].C[N+](C)(C)[BH2-]C(=O)[O-].C[N+](C)(C)[BH2-]C(=O)[O-].O.O=[N+]([O-])[O-].[Cr+3].[Cr+3].[Cr+3].[O-2] [Compound 26]	7.73 µM	2.49 µM	5.47 µM	58.5%	1.62 µM	6.99 µM	85.4%	9.96 µM	40.0	2.14 µM	1.2 µM	184	5.09 µM	2.1 µM	2.48 µM	567 µM	78.0	
CC(C)[Si](OC[C@H]1O[C@@H](n2cnc3c(=O)[nH]cnc32)C[C@@H]1O[Si](C(C)C)(C(C)C)C(C)C)(C(C)C)C(C)C [Compound 29]																		IC50 (5'-Lipoxygenase): 8.85 µM; IC50 (Cathepsin D [3]; [27]): 79.6 µM; IC50 (Cathepsin [24]): 31.8 µM
CC(C)[Si](OC[C@@H]1CC[C@H](n2ccc(N)[n+]([BH2-]C#N)c2=O)O1)(C(C)C)C(C)C [Compound 42]																		IC50 (5'-Lipoxygenase): 6.64 µM; IC50 (Cathepsin D [3]; [27]): 30.6 µM; IC50 (Cathepsin [24]): 7.31 µM
